From US20240002429A1, “PRODRUG OF 5a-HYDROXY-6ß-[2-(1H-IMIDAZOL-4-YL)ETHYLAMINO]CHOLESTAN-3ß-OL AND PHARMACEUTICAL COMPOSITIONS COMPRISING SAME FOR USE IN THE TREATMENT OF CANCER” (priority 2020, published 2024)
Read-outs that look alike come from different tables or passages of the source.

How the values were obtained:
[1] = Pharmacokinetic study of DX117 (LC/MS in plasma); assay type: in vivo; conditions: rat, 50 mg/kg, administered compound assayed
From the text: (§1) The following study is a determination by LC/MS in plasma of the various molecules over 3 days (11 measurement points at the end). The graphs are always presented in comparison with DX101, which is the reference. […]

[2] = Pharmacokinetic study of DX121 (LC/MS in plasma); assay type: in vivo; conditions: rat, oral 50 mg/kg, administered compound assayed
From the text: as §1

[3] = system: MCF-7 mammary tumor cells; assay: Morphology of MCF-7 cells under inverted microscope; assay type: cell-based
Experimental: A cell viability test was carried out on MCF-7 mammary tumor cells (Michigan Cancer Foundation-7) […] (ER(+) cells) containing receptors for the hormone estrogen.
The MCF-7 cells are in a cell culture medium identical to example 14 and are seeded in 12-well plates at 50000 cells per well for 24 h. 24 hours after seeding, the cells are treated with the solvate vehicle comprising water and ethanol with an ethanol ratio 1‰ and comprising 5α-hydroxy-6β-[2-(1H-imidazol-4-yl)-ethylamino]-cholestan-3β-yl propionate or 5α-hydroxy-6β-[2-(1H-imidazol-4-yl)-ethylamino]-cholestan-3β-ol at 1, 2.5 or 5 μM. The cells are observed in an inverted microscope and photographed with the microscope camera at 24 h and 48 h. The morphological changes of the cells at 1 μM are very slight.
In this test: • The white vesicles reflect cell death by cytotoxic autophagy; • The cells that become rounded reflect cell death; • The cells that become detached reflect a cytotoxic effect; • The adherent cells reflect cell survival; • The supernatant cells reflect cell death; and • The refractive cells reflect cell death.

4T1 cells = assay: Cytotoxicity on 4T1 cells, MTT; assay type: cell-based, murine; conditions: Mus musculus, 4T1, MTT, 48 h
Experimental: The cellular viability tests were carried out on murine mammary tumor 4T1 cells characterized as negative triples (HER2−, ER−, PR−).
For this experiment, a cell culture medium was prepared. The culture medium consists of Dulbecco's Modified Eagle Medium (DMEM, marketed by Westburg under the reference LO BE12-604F), comprising 4.5 g/L glucose with L-glutamine, to which 10% of fetal calf serum (FCS) and 50 U/mL of penicillin/streptomycin are added. The 4T1 cells are introduced into this culture medium.
96-well plates were seeded with 2000 4T1 cells per well. After 72 hours (h) of culture in normal conditions, i.e. in an incubator at a temperature of 37° C. at 5% CO2, the 4T1 cells are treated for 48 h with DX101, DX107, DX113, DX117, DX119, DX121 or DX131 at 100 nM, 1 μM, 2.5 μM and 10 μM. A control condition (CTL) is also carried out in parallel using the protocol described above but without treatment with the molecules DX101, DX107, DX113, DX117, DX119, DX121, DX131 or DX133.
Cellular viability is measured by three different methods. For the first method, MTT labeling is carried out at 48 hours. This test is based on the use of the tetrazolium salt MTT (3-(4,5-dimethylthiazol-2-yl)-2,5-diphenyltetrazolium bromide). The tetrazolium is reduced by mitochondrial succinate dehydrogenase of active living cells, to formazan, a precipitate of a violet color. The quantity of precipitate formed is proportional to the quantity of living cells but also to the metabolic activity of each cell. […] After 48 hours, the medium is aspirated, and the cells are incubated with MTT (0.5 mg/ml in culture medium) for about 3 hours. The MTT solution is aspirated and the violet crystals are dissolved in dimethylsulfoxide (DMSO). The OD (optical density) is measured at 550 nm. The percentage viability is then determined in each well relative to the CTL and the IC50 (concentration for which there are still 50% of living cells) is determined for each molecule with Prism software using the nonlinear regression straight line (log(inhibitor) vs. Response).

[4] = system: BT-474 human mammary tumor cells; assay: Cytotoxicity on BT-474 cells, trypan blue; assay type: cell-based; conditions: BT-474, trypan blue, 48 h
Experimental: The cellular viability tests were also carried out on BT-474 human mammary tumor cells (characterized as being positive triples HER2+, ER+, PR+). The BT-474 cells are in a cell culture medium identical to the preceding example and are seeded in 24-well plates at 70 000 cells per well, for determination of cellular viability using trypan blue, or in 96-well plates at 13 000 cells per well for determination of cellular viability using the MTT or LDH assay. After 96 hours (h) of culture in normal conditions, i.e. in an incubator at a temperature of 37° C. at 5% CO2, the BT-474 cells are treated for 48 h with DX101, DX107, and DX113 at 100 nM, 1 μM, 2.5 μM and 10 μM. A control is also carried out using the protocol described above but without treatment with the molecules DX101, DX107, DX113, DX117, DX119, DX121 or DX131.
After trypsin digestion for 10 minutes at 37° C., cell survival was quantified, also by a trypan blue assay with automatic counting with the Biorad TC20 equipment (TC20™ Automated Cell Counter). The trypan blue assay is based on the cell membrane integrity, which is broken in the dead cells. Trypan blue stains the dead cells blue. The Biorad TC20 cell counter counts the proportion of blue cells and non-blue cells, relative to the cell percentages. The percentage viability is then determined in each well relative to the untreated cells and the IC50 is determined as explained in the preceding example. The percentage viability of the BT-474 cells was determined using the MTT and LDH assay, carried out as described in the preceding example.

| Structure (SMILES) | Concentration max [1] [nM] | Area under curve ([1]; 0-72 h) | Concentration max [2] [nM] | Area under curve ([2]; 0-72 h) | Morphological observations at 24 hours ([3]; MCF-7, 1 μM, 24 h) | Observations at 48 hours ([3]; MCF-7, 5 μM, 48 h) | IC50 (4T1 cells; log of IC50 in μM, read-out: Mean LogIC50 (±SEM) (converted)) [µM] | IC50 (4T1 cells; read-out: IC50) [µM] | Mean LogIC50 (±SEM) ([4]; log of IC50 in μM) | IC50 ([4]; Homo sapiens) [µM] |
| --- | --- | --- | --- | --- | --- | --- | --- | --- | --- | --- |
| CC(C)CCC[C@@H](C)[C@H]1CC[C@H]2[C@@H]3C[C@@H](NCCc4c[nH]cn4)[C@@]4(O)C[C@@H](O)CC[C@]4(C)[C@H]3CC[C@]12C [DX101, 5α-hydroxy-6β-[2-(1H-imidazol-4-yl)-ethylamino]-cholestan-3β-ol, reference compound] | 150 | 3019 | 150 | 3019 | Some white vesicles | All the cells are supernatant. |  |  |  |  |
| CCC(=O)O[C@H]1CC[C@]2(C)[C@H]3CC[C@]4(C)[C@@H]([C@H](C)CCCC(C)C)CC[C@H]4[C@@H]3C[C@@H](NCCc3c[nH]cn3)[C@@]2(O)C1 [DX107, 5α-hydroxy-6β-[2-(1H-imidazol-4-yl)ethylamino]cholestan-3β-yl propionate] |  |  |  |  |  |  | 3.8 | 3.79 | 0.66 ± 0.04 | 4.58 |
